We go through four compounds from paper PMC10424187, “Structure-Guided Design and Synthesis of a Pyridazinone Series of Trypanosoma cruzi Proteasome Inhibitors” (Journal of Medicinal Chemistry, 2023).

One may read the pEC50 as −log10 of the EC50, conventionally taken in molar units. For orientation: solubility means the concentration that dissolves in the medium under given conditions. For orientation: pIC50 means −log10 of the IC50, conventionally taken in molar units. Low values mean a high IC50, high ones a low IC50.

Series [1] addresses Human 20S proteasome (Homo sapiens, UniProt P28074+P49721). The series can be described thus: human proteasome assay (chymotrypsin-like activity, Suc-LLVY-Rho-110-DPro).
Procedure: T. cruzi and human proteasome assays
The T. cruzi proteasome was partially purified as described in the above reference and Human
20S proteasome was purchased from Boston Biochem (now R&D Systems, catalogue number
a Tecan Fluent to titrate over 11 points in Labcyte Echo-compatible Greiner Bio-One 384 well
polypropylene microplates. Subsequently, 100 nl of test compound titrations were transferred
to black Greiner Bio-One low volume 384 well microplates using a Labcyte Echo acoustic
50 mM HEPES pH 7.5, 150 mM sodium chloride, 5% Glycerol, 1 mM dithiothreitol, 1 mM
CHAPS in deionised, filtered water (all chemicals purchased from Sigma Aldrich). Human 20S
These enzyme solutions were prepared immediately prior to assay initiation and stored at 4 °C
To monitor the Chymotrypsin-like activity of the T. cruzi and Human 20S proteasome proteins
a self-quenched, Rhodamine 110-labelled peptide with the sequence Suc-LLVY-Rho-110-
DPro was used (prepared by Cambridge Research Biochemicals. Suc is succinyl, while DPro
refers to ᴅ-proline). The peptide was initially prepared from solid as a 10 mM solution in 100%
DMSO and stored at -20 °C. Prior to use in the assay, an aliquot was thawed at room
to twofold Km. For use with the Human 20S proteasome, the Suc-LLVY-Rho-110-DPro
peptide was diluted in assay buffer to a concentration equivalent to twofold Km, which for this
enzyme was 2 μM. The peptide solutions were protected from light and stored at 4 °C before
A Multidrop Micro (Thermo Fisher), using a low volume dispense cassette, was used to add
the assay solutions to the test compounds in the low volume 384-well microplates. Prior to
addition of proteasome solution, 5 μl of assay buffer was added to one column (containing 100
nl, 100% DMSO) to act as no enzyme control to mimic full inhibition. Subsequently, 5 μl of
proteasome solution (either T. cruzi or Human 20S) was added to all wells on the test
microplate apart from the column containing 5 μl assay buffer. The microplate was then spun
using a suitable bench top centrifuge for 1 minute at 1000 rpm, before incubation at room
Following the initial incubation, 5 μl of substrate solution was then added to all wells on the
test microplate using a Multidrop Micro equipped with a discrete low volume dispense cassette.
The test microplates were then spun for 10 seconds at 1000 rpm before being rapidly moved to
a multi-mode microplate reader, capable of monitoring fluorescence intensity. The microplate
reader used for these studies was a Tecan M1000 Pro, equipped with quad monochromators.
530 ± 5 nm. A series of fluorescence intensity measurements were taken every 30 seconds for
Subsequently, the fluorescence intensity measurements (relative fluorescence units, RFU) were
fit to a simple linear regression model (y = A + Bx, where y refers to the fluorescence intensity
and x refers to the time in seconds) to determine the initial rate of reaction. The initial rate for
every compound concentration tested was then fit a 4-parameter logistic model: y = (A + (B -
A)) / (1 + (x / C)D), where y refers to the assay response, x refers to the inhibitor concentration,
A and B are the range values (minimum and maximum, respectively), C is the IC50 value and
D is the slope. Potency values were then reported as pIC50, which is the negative log of the
IC50 (on a molar scale). Data analysis was automated and carried out using the ActivityBase
Series [2] has as its system intracellular T. cruzi X10/7 A1 amastigotes.
In series [3] the test system is host VERO cells.
Series [4] can be described thus: Mouse microsomal intrinsic clearance. The settings on record: mouse liver microsomes, scaling 52.5 mg microsomal protein/g liver. The format is in vitro ADME. The method, then:
Mouse microsomal intrinsic clearance.
This assay was conducted as previously described:
J.; Reid, I. H.; Hill, A. P.;
(§1) were prepared by adding a volume (5 µL) of the 10 mM solution to a volume (195 µL) of […]
(Microsomes from liver hold many membrane-bound enzymes, among them those of drug oxidation.)

Series [5] in a line: ChromLogD. The series is classed as physicochemical. Conditions: pH 7.4; read-out: Chrom LogDpH7.4. The method, then:
Chrom LogD was measured as previously described:
solubility and hydrophobicity. Drug Discov. Today 2010, 15, 648−655. […]

Series [6] is described as follows: Kinetic aqueous solubility (UHPLC, PBS pH 7.4). The series is classed as physicochemical. Conditions: phosphate buffered saline, UHPLC UV/MS. The method, then:
This assay was conducted as previously described: […]
as §1
format). Samples were then drawn through the filter using vacuum. The filtrate from the above […]
formic acid gradient elution. The UHPLC parameters are shown below:
Gradient program: Initial: 98% A, 2% B
Re-equilibration time: 0.6 min
Autosampler temperature: 25°C
Detector wavelength: 254 nm

Series [7] has as its target T. cruzi proteasome (Trypanosoma cruzi, UniProt V5BU39+V5C017). As to the kind of experiment: T. cruzi proteasome assay (chymotrypsin-like activity, Suc-LLVY-Rho-110-DPro). Conditions: for Tc Prot Hill Slope / Tc Prot Max Response (%): individual replicate; for Emax: read-out: Tc Prot Max Response (%), individual replicate.
Setting [8] is: mean of at least three independent replicates.
Setting [9] is: T. cruzi Prot pIC50, mean of at least three independent replicates.
The mark [10] stands for this setting: Tc Prot pIC50, individual replicate.

pEC50, pIC50: −log10 of the molar value. In brackets after ≈: the same amount, converted by molar mass. Several values for one entry are separate records, joined by “and”; a condition that tells them apart may be missing. Equal values may be shown once. Where only a bound is given, the exact number is not on record here.

Sequence of T. cruzi proteasome (V5BU39 entry or part of it): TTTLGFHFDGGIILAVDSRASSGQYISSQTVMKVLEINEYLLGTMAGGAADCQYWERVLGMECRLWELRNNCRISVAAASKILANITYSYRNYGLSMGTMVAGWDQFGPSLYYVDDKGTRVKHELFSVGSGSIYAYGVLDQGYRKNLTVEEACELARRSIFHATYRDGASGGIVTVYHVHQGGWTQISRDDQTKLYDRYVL
Sequence of T. cruzi proteasome (V5C017 entry or part of it): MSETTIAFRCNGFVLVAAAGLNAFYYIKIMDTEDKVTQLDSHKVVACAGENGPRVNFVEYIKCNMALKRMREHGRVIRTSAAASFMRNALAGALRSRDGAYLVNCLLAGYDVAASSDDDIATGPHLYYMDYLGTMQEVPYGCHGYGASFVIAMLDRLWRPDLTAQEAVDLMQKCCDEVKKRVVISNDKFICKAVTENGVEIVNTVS

As to `O=C(NC1CC1)c1ccc(F)c(NC(=O)c2ccc(=O)n(Cc3ccccc3)n2)c1` [Compound 10, 1-Benzyl-N-(5-(cyclopropylcarbamoyl)-2-fluorophenyl)-6-oxo-1,6-dihydropyridazine-3-carboxamide], the “Hs Prot Max Response (%)” value in series [1] (individual replicate) was 17% and 3% and 2.27%. Moreover, the “Hs Prot pIC50” value in series [1] (individual replicate) and in series [1] (setting [8]) was under 4 in each case. Moreover, the negative logarithm of the EC50 (pEC50) in series [2] and in series [3] was under 4.30 throughout. Moreover, in series [4], the “Mouse CLi” value was determined as 3.1 mL/min/g. Besides, the chromatographic logD in series [5] was 4.1. The solubility at 24 h in series [6] worked out at 1.5 µM (≈ 0.61 µg/mL). The pIC50 is 5.80 in series [7] (setting [9]) and under 4.00 in series [7] (setting [10]). For the same compound, the “Tc Prot Hill Slope” value in series [7] is recorded as 1.2. Besides, the “Tc Prot Max Response (%)” value in series [7] is 35% and 20% and 57%.

Take `COc1ccc(Cn2nc(C(=O)Nc3ccc(F)c(C(=O)NC4CC4)c3)ccc2=O)cc1Cl` [Compound 14, 1-[(3-Chloro-4-methoxy-phenyl)methyl]-N-[3-(cyclopropylcarbamoyl)-4-fluorophenyl]-6-oxo-pyridazine-3-carboxamide]: in series [1] (individual replicate), the “Hs Prot Max Response (%)” value was 17% and 49%; the “Hs Prot pIC50” value was under 4. For the same compound, the “Hs Prot pIC50” value in series [1] (setting [8]) is under 4. In addition, in series [2], the negative-log EC50 (pEC50) was 7.30 and 7.40 and 7.20; the Emax was 92% and 94% and 90% and 93%. This compound gave a pEC50 in series [3] of under 4.30. Further, in series [4], the “Mouse CLi” value amounted to 1.6 mL/min/g. Besides, in series [5], the chromatographic logD was 4.7. In series [6], this compound gave a solubility at 24 h of under 1 µM. Moreover, the negative logarithm of the IC50 (pIC50) in series [7] (setting [9]) was > 8.00 and 8.50. In series [7] (setting [10]), the pIC50 was 8.30 and 8.70. Further, in series [7], the “Tc Prot Hill Slope” value was 0.95 and 0.9; the “Tc Prot Max Response (%)” value amounted to 86%; the Emax turned out to be 80%.

Take `O=C(Nc1ccc(F)c(C(=O)NC2CC2)c1)c1ccc(=O)n(Cc2ccc(Cl)c(F)c2)n1` [Compound 17, 1-[(4-Chloro-3-fluorophenyl)methyl]-N-[3-(cyclopropylcarbamoyl)-4-fluorophenyl]-6-oxo-pyridazine-3-carboxamide]: in series [1] (individual replicate), the “Hs Prot Max Response (%)” value is 21% and 22% and 27% and 11%; the “Hs Prot pIC50” value was under 4. The “Hs Prot pIC50” value in series [1] (setting [8]) was under 4. In series [2], the negative-log EC50 (pEC50) is 6.70; the Emax was 90% and 93%. Moreover, in series [3], the pEC50 is under 4.30. For the same compound, the “Mouse CLi” value in series [4] is recorded as 4.8 mL/min/g. Also, the chromatographic logD in series [5] is 5.1. In addition, the solubility at 24 h in series [6] came to 21 µM (≈ 9.64 µg/mL). In series [7] (setting [9]), this compound showed a negative-log IC50 (pIC50) of 7.60. In series [7] (setting [10]), the negative logarithm of the IC50 (pIC50) is 7.40 and 7.70. In series [7], the “Tc Prot Hill Slope” value was 0.9 and 1.0; the “Tc Prot Max Response (%)” value is 87% and 86%; the Emax came to 80%.

In the case of `COc1ncc(Cn2nc(C(=O)Nc3ccc(F)c(C(=O)NC4CC4)c3)ccc2=O)cc1F` [Compound 18, N-(3-(Cyclopropylcarbamoyl)-4-fluorophenyl)-1-((5-fluoro-6-methoxypyridin-3-yl)methyl)-6-oxo-1,6-dihydropyridazine-3-carboxamide], the “Hs Prot Max Response (%)” value in series [1] (individual replicate) is given as 13%. The “Hs Prot pIC50” value in series [1] (individual replicate) and in series [1] (setting [8]) was under 4 each time. Also, the Emax in series [1] (read-out: Hs Prot Max Response (%), individual replicate) was 10%; in series [2], 53% and 54% and 55% and 67% and 52%; in series [7], 75%. For the same compound, the pEC50 in series [2] is 4.30; in series [3], under 4.30. Moreover, in series [4], the “Mouse CLi” value is 3.5 mL/min/g. In series [5], the chromatographic logD worked out at 5.6. The solubility at 24 h in series [6] is under 1 µM. Moreover, the pIC50 in series [7] (setting [9]) is 5.60; in series [7] (setting [10]), 5.30 and 5.80. In addition, the “Tc Prot Hill Slope” value in series [7] is 1.2 and 1.1. Besides, the “Tc Prot Max Response (%)” value in series [7] came to 80%.
